≈ marks a conversion by molar mass, not a printed value. Where two headings read alike, the source gives them in different places.
Columns and labels:
Type in all cases: cell-based
E. coli MP-9 ΔTolC = test: MIC against E. coli MP-9 ΔTolC
S. pyogenes ATCC 19615 = test: MIC against S. pyogenes ATCC 19615
S. pneumoniae ATCC 49619 = test: MIC against S. pneumoniae ATCC 49619
S. aureus BAA 977 iErmA = test: MIC against S. aureus BAA 977 iErmA; conditions: Staphylococcus aureus, BAA977
S. aureus ATCC 29213 = test: MIC against S. aureus ATCC 29213
E. coli ATCC 25922 = test: MIC against E. coli ATCC 25922
K. pneumoniae ATCC 10031 = test: MIC against K. pneumoniae ATCC 10031
E. faecalis ATCC 29212 = test: MIC against E. faecalis ATCC 29212
H. influenzae ATCC 49247 = test: MIC against H. influenzae ATCC 49247
[1] = tested on: E. coli MP-74 LptD mutant; test: MIC against E. coli MP-74 LptD mutant
[2] = tested on: S. aureus MP-549 msr(a) USA 300; test: MIC against S. aureus MP-549 msr(a) USA 300
[3] = Streptococcus pyogenes, ATCC19615, S. pyogenes ATCC 19615, read-out: MIC
[4] = Streptococcus pneumoniae, ATCC49619, S. pneumoniae ATCC 49619, read-out: MIC
[5] = Staphylococcus aureus, ATCC29213, S. aureus ATCC 29213, read-out: MIC
[6] = Escherichia coli, ATCC25922, read-out: MIC
[7] = Klebsiella pneumoniae, ATCC10031, read-out: MIC
[8] = Enterococcus faecalis, ATCC29212, E. faecalis ATCC 29212, read-out: MIC
[9] = Haemophilus influenzae, ATCC49247, H. influenzae ATCC 49247, read-out: MIC
[10] = S. aureus MP-549 msr(a) USA 300

Compound	MIC (E. coli MP-9 ΔTolC; Escherichia coli) [µg/mL]	MIC (S. pyogenes ATCC 19615; [3]) [µg/mL]	MIC (S. pneumoniae ATCC 49619; [4]) [µg/mL]	MIC (S. aureus ATCC 29213; [5]) [µg/mL]	MIC (E. coli ATCC 25922; [6]) [µg/mL]	MIC (K. pneumoniae ATCC 10031; [7]) [µg/mL]	MIC (E. faecalis ATCC 29212; [8]) [µg/mL]	further results
C=C[C@@H](NC(=O)[C@@H]1C[C@@H](CCC)CN1C)[C@H]1OC(SC)[C@H](O)C(O)C1O (some centres unmarked) [FSA-215031]	> 64	2 (≈ 5.15 µM)	2 (≈ 5.15 µM)	8 (≈ 20.6 µM)	> 64	> 64	32 (≈ 82.4 µM)	MIC (S. aureus BAA 977 iErmA): 8 µg/mL (≈ 20.6 µM)
CCC[C@@H]1C[C@@H](C(=O)N[C@H](CNc2ccccc2)[C@H]2OC(SC)[C@H](O)C(O)C2O)N(C)C1 (some centres unmarked) [FSA-214088]		> 64	> 64	> 64	> 64		> 64	
CCC[C@@H]1C[C@@H](C(=O)N[C@@H]([C@H]2OC(SC)[C@H](O)C(O)C2O)C(C)(C)C(C)N=[N+]=[N-])N(C)C1 (single isomer, unassigned) [FSA-217021a]	> 64				> 64	> 64	> 64	MIC (S. pyogenes ATCC 19615; S. pyogenes ATCC 19615): 2 µg/mL (≈ 4.22 µM); MIC (S. pneumoniae ATCC 49619; S. pneumoniae ATCC 49619): 2 µg/mL (≈ 4.22 µM); MIC (S. aureus ATCC 29213; S. aureus ATCC 29213): 4 µg/mL (≈ 8.45 µM); MIC (H. influenzae ATCC 49247; [9]): > 64 µg/mL; MIC [1]: >64 µg/mL; MIC [2, 10]: 4 µg/mL (≈ 8.45 µM)
CCC[C@@H]1C[C@@H](C(=O)N[C@H](CNCc2ccc(F)cc2)[C@H]2OC(SC)[C@H](O)C(O)C2O)N(C)C1 (some centres unmarked) [FSA-214084]		> 64	> 64	> 64	> 64		> 64	
C=CC(C)(C)[C@@H](NC(=O)[C@@H]1C[C@@H](CCC)CN1C)[C@H]1OC(SC)[C@H](O)C(O)C1O (some centres unmarked) [FSA-217009]	> 64	0.12 (≈ 0.279 µM)	0.5 (≈ 1.16 µM)	0.25 (≈ 0.581 µM)	> 64	> 64	64 (≈ 149 µM)	MIC (H. influenzae ATCC 49247; [9]): 64 µg/mL (≈ 149 µM); MIC ([1]; Escherichia coli): 32 µg/mL (≈ 74.3 µM); MIC ([2]; Staphylococcus aureus, USA300, S. aureus MP-549 msr(a) USA 300): 0.25 µg/mL (≈ 0.581 µM)
CCC[C@@H]1C[C@@H](C(=O)N[C@H]([C@@H]2CCC(O)C2O)[C@H]2OC(SC)[C@H](O)C(O)C2O)N(C)C1 (single isomer, unassigned) [FSA-217039b]								MIC (E. coli MP-9 ΔTolC): >64 µg/mL; MIC (S. pyogenes ATCC 19615; S. pyogenes ATCC 19615): 0.5 µg/mL (≈ 1.08 µM); MIC (S. pneumoniae ATCC 49619; S. pneumoniae ATCC 49619): 1 µg/mL (≈ 2.16 µM); MIC (S. aureus ATCC 29213; S. aureus ATCC 29213): 4 µg/mL (≈ 8.65 µM); MIC (E. coli ATCC 25922): >64 µg/mL; MIC (H. influenzae ATCC 49247; H. influenzae ATCC 49247): >64 µg/mL; MIC (K. pneumoniae ATCC 10031): >64 µg/mL; MIC (E. faecalis ATCC 29212; E. faecalis ATCC 29212): >64 µg/mL; MIC [1]: >64 µg/mL; MIC [2, 10]: 8 µg/mL (≈ 17.3 µM)
CCC[C@@H]1C[C@@H](C(=O)N[C@H](CNC23CC(C2)C3)[C@H]2OC(SC)[C@H](O)C(O)C2O)N(C)C1 (some centres unmarked) [FSA-2140836]		> 64	> 64	> 64	> 64		> 64	

Reference: patent publication US11566039B2, “Lincosamide antibiotics and uses thereof” (President and Fellows of Harvard College, priority 2017, dated 2023)
